Laboratory results published in patent US20230119479A1, “A HISTONE DEACETYLASE INHIBITOR HAVING A NITROGEN-CONTAINING AROMATIC HETEROCYCLYL GROUP” (SHIONOGI & CO., LTD., priority 2019, published 2023).

How the values were obtained:
[1] = BA test (oral absorption); type: in vivo; conditions: plasma; mice or rats; oral vs intravenous administration
Description: Materials and methods for experiments to evaluate oral absorption (1) Experimental animals: mice or rats were used. (2) Rearing condition: mice or rats were allowed free access to solid feed and sterilized tap water. (3) Setting of dosage and grouping: Oral administration and intravenous administration were performed with the predetermined dosage. Grouping was set as below. (Dosage was changed per compound)
Oral administration 2 to 60 μmol/kg or 1 to 30 mg/kg (n=2 to 3)
Intravenous administration 1 to 30 μmol/kg or 0.5 to 10 mg/kg (n=2 to 3)
(4) Preparation of administration solutions: Oral administration was performed as suspension or solution. Intravenous administration was performed after solubilization. (5) Routes of administration: Oral administration was performed mandatory into the stomach by oral sonde. Intravenous administration was performed from caudal vein by syringes with needle. (6) Evaluation items: Blood was collected serially and concentration of a compound of the present invention in plasma was measured by LC/MS/MS. (7) Statistical analysis: About transition of concentration of a compound of the present invention in plasma, the area under the plasma concentration versus time curve (AUC) was calculated by non-linear least-squares method program, and bioavailability (BA) of a compound of the present invention was calculated from dosages and AUCs of the oral administration group and the intravenous administration group. The dilution concentration or the dilution solvent were changed as necessary.

[2] = Metabolism stability test; type: in vitro ADME; conditions: human liver microsomes 0.5 mg protein/mL, 30 minutes, 37° C., NADPH
Description: Using commercially available pooled human hepatic microsomes, a compound of the present invention is reacted for a constant time, and a remaining rate is calculated by comparing a reacted sample and an unreacted sample, thereby, a degree of metabolism in liver is assessed.
A reaction is performed (oxidative reaction) at 37° C. for 0 minute or 30 minutes in the presence of 1 mmol/L NADPH in 0.2 mL of a buffer (50 mmol/L Tris-HCl pH 7.4, 150 mmol/L potassium chloride, 10 mmol/L magnesium chloride) containing 0.5 mg protein/mL of human liver microsomes. After the reaction, 50 μL of the reaction solution is added to 100 μL of a methanol/acetonitrile=1/1 (v/v), mixed and centrifuged at 3000 rpm for 15 minutes. The compound of the present invention in the supernatant is quantified by LC/MS/MS or Solid Phase Extraction (SPE)/MS, and a remaining amount of the compound of the present invention after the reaction is calculated, letting a compound amount at 0 minute reaction time be 100%. The hydrolysis reaction is carried out in the absence of NADPH, and the glucuronidation reaction is carried out in the presence of 5 mmol/L UDP-glucuronic acid instead of NADPH, and the same operation is carried out thereafter. The dilution concentration and dilution solvent are changed as necessary.

[3] = Platelet toxicity test using human blood progenitor cells (WST); type: cell-based; conditions: human bone marrow CD34+ progenitor cells, maximum concentration 25 μM
Description: Test Example 2: Platelet Toxicity Test Using Human Blood Progenitor Cells
Human bone marrow CD34+ progenitor cells (Lonza, 2M-101B) stored at −80° C. were thawed, spun down at 150 g for 10 minutes at 20° C., and a medium (StemSpan Expansion Supplement, STEM CELL TECHNOLOGIES, ST-02696) to which cytokines (StemSpan SFEM II, STEM CELL TECHNOLOGIES, ST-09655) was added was added to adjust to 2×10^4/well, the mixture was seeded in 12well non-coat dish (Corning, 3513), was incubated for 10 days at 37° C., 5% CO2. After 10 days, the cells were collected and spun down at 150 g for 10 minutes at 20° C., and a medium (StemSpan Expansion Supplement) containing cytokines (StemSpan SFEM II) was added so that the number of cells became 2×10^5 cells/ml. 50 μl of the cell suspension was seeded to each well of a 96-well plate (Corning, 3596) and allowed to stand overnight in an incubator at 37° C., 5% CO2. The next day, 50 μl of the test compound was treated to each well and allowed to stand for 48 hours in the incubator at 37° C., 5% CO2 (n=2). At this time, the test compound dissolved in 100% DMSO was serially diluted with DMSO at a 3-fold ratio, and then a medium containing cytokine was added to adjust the final concentration to 25, 8.33, 2.78, 0.93, 0.31, 0.1 μM. After that, 10 μl of WST (Cell count reagent SF, Nacalai Tesque Inc., 07553-44) was added to each well, and the mixture was allowed to stand in the incubator for 4 hours at 37° C., 5% CO2, and then the multi-label reader 2030 ARVO X4 (PerkinElmer) was used to measure the absorbance. At this time, the absorbance at 450 nm and the absorbance at 620 nm were obtained, and the difference between 450 nm and 620 nm was used as the measured value. The measured values were analyzed by Excel and TIBCO Spotfire, and IC50 values were calculated. At this time, for control (−), the well without cells was set as n=6 for one row, and the average value was calculated, and for control (+), the well in which DMSO was added to the cells so as to have the same concentration as the compound treatment group was set as n=6 for one row, and the average value was calculated and corrected for each plate. For the test compound, the average value of n=2 was used.

C[C@H](F)COc1cnc(C(=O)Nc2cc(-c3ccc(F)nc3)ccc2N)cn1 (racemic) [Compound I-125]
bioavailability [1]: 32.1%
remaining rate after reaction [2]: 80.4%
IC50 at 48 h [3]: > 25 µM

Cn1cc(-c2cnc(C(=O)Nc3nc(-c4cccs4)ccc3N)cn2)cn1 [Compound I-017]
bioavailability [1]: 19.6%
remaining rate after reaction [2]: 81.8%
IC50 at 48 h [3]: > 25 µM

Cn1cc(-c2cnc(C(=O)Nc3nc(-n4cccc4)ccc3N)cn2)cn1 [Compound I-023]
bioavailability [1]: 43.7%
remaining rate after reaction [2]: 95.3%
IC50 at 48 h [3]: > 25 µM

Cn1cc(-c2cnc(C(=O)Nc3cc(-c4ccc(F)nc4)ccc3N)cn2)cn1 [Compound I-080]
bioavailability [1]: 38.4%
remaining rate after reaction [2]: 84.8%
IC50 at 48 h [3]: > 25 µM

N#Cc1ccc(C(=O)Nc2cc(-c3ccc(F)nc3)ccc2N)nc1 [Compound I-092]
bioavailability [1]: 22.4%
remaining rate after reaction [2]: 103%
IC50 at 48 h [3]: > 25 µM

CCOc1cnc(C(=O)Nc2cc(-c3ccc(F)nc3)ccc2N)cn1 [Compound I-118]
bioavailability [1]: 22.7%
IC50 at 48 h [3]: > 25 µM

Cn1cc(-c2ccc(N)c(NC(=O)c3cnc(C4CC4)cn3)c2)cn1 [Compound I-130]
bioavailability [1]: 37.2%
remaining rate after reaction [2]: 92.9%
IC50 at 48 h [3]: > 25 µM
